Laboratory results published in patent US12172983B2, “EGFR inhibitors” (Blueprint Medicines Corporation, priority 2019, dated 2024).
Like-named read-outs stand apart in the source and are kept apart here.

Key:
[1] = tested on: phosphorylation of EGFR (Tyr1068) in NCI-H1975 cell line that harbors the EGFR L858R T790M mutations; experiment: NCI-H1975 pEGFR AlphaLISA assay; type: cell-based; details: 4-5 hours incubation, read-out: Ext pEGFR H1975
Method in brief: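 NCI-H1975 cells (EGFR L858R/T790M) seeded overnight, then treated with compound for 4-5 h at 37 °C/5% CO2. After lysis, p-EGFR (Tyr1068) quantified by AlphaLISA SureFire Ultra with acceptor then donor beads; IC50 fitted from percent inhibition versus log concentration.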

EGFR (L858R T790M C797S) = target: T1, EGFR (L858R T790M C797S) (Homo sapiens, UniProt P00533, C797S/L858R/T790M); experiment: Biochemical EGFR inhibition assay (Caliper mobility shift), EGFR LRTMCS mutant; details: inhibitory activity against EGFR LRTMCS mutant; apparent IC50; read-out: Ext Enz LRTMCS
T1 construct: purchased SignalChem E10-122VG
T1 sequence (P00533 25-1210 T790M/C797S/L858R): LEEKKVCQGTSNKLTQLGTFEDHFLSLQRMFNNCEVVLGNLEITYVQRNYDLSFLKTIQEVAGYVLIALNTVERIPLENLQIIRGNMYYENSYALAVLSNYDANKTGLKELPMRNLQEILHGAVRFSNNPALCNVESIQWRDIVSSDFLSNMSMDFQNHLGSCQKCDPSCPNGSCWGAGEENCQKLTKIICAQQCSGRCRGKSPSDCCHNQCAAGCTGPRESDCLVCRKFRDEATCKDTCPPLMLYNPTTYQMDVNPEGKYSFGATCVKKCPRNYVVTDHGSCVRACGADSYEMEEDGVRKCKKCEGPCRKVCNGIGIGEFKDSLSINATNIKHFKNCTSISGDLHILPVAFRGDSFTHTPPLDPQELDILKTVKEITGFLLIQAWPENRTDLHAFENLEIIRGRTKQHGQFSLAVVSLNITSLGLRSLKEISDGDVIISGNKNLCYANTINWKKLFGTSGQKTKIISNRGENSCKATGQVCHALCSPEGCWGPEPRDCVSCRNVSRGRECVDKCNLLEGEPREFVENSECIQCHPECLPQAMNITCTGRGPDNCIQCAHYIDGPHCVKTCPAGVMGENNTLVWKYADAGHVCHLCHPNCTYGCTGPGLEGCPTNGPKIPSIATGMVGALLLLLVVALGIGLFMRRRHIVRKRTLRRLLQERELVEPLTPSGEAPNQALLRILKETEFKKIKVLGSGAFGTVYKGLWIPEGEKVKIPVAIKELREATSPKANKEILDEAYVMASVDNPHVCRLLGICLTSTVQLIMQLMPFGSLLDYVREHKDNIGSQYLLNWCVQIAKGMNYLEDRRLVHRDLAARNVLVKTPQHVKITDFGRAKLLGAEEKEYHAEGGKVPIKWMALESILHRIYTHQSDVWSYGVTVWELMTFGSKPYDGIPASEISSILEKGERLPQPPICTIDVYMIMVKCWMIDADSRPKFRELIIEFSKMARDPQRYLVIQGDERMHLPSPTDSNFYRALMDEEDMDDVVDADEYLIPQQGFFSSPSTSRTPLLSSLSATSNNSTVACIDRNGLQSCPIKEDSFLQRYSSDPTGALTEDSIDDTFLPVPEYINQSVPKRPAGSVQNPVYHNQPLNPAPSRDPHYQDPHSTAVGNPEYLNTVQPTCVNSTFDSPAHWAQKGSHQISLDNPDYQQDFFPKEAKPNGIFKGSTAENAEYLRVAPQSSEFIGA
Method in brief: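 Apparent IC50s were derived by plotting percent activity against the log of compound concentration. Activity was measured as phosphopeptide electrophoretically separated from substrate, after reactions at room temperature reached 10% to 20% phosphorylation and were halted with 35 mM EDTA.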

[2] = Homo sapiens, NCI-H1975, inhibition of phosphorylation of mutant EGFR in NCI-H1975 cells

SMILES | IC50 [1, 2] [nM] | IC50 (EGFR (L858R T790M C797S)) [nM] | IC50 ([1]; inhibition of phosphorylation of mutant EGFR in NCI-H1975 cells) [nM]
COC1CCN(c2nncc(Nc3cc4c(C(C)C)ccc(N5CC(CS(C)(=O)=O)C5)c4cn3)n2)CC1 [Compound 23, 8-[3-(methanesulfonylmethyl)azetidin-1-yl]-N-[3-(4-methoxypiperidin-1-yl)-1,2,4-triazin-5-yl]-5-(propan-2-yl)isoquinolin-3-amine] | 10.1 to 20 | ≤ 15 | 
C[C@@H]1[C@@H](CS(C)(=O)=O)CN1c1ccc(F)c2cc(Nc3ccnc(N4C[C@H](F)[C@H](O)C(C)(C)C4)n3)ncc12 (single isomer, unassigned) [Compound 83, (4S,5R)-5-fluoro-1-[4-({5-fluoro-8-[(2R,3S)-3-(methanesulfonylmethyl)-2-methylazetidin-1-yl]isoquinolin-3-yl}amino)pyrimidin-2-yl]-3,3-dimethylpiperidin-4-ol or (4R,5S)-5-fluoro-1-[4-({5-fluoro-8-[(2R,3S)-3-(methanesulfonylmethyl)-2-methylazetidin-1-yl]isoquinolin-3-yl}amino)pyrimidin-2-yl]-3,3-dimethylpiperidin-4-ol] | ≤ 10 | ≤ 15 | 
CCS(=O)(=O)CC1CN(c2ccc(C(C)C)c3cc(Nc4ccnc(N5CC[C@H](OCCO)[C@H](F)C5)n4)ncc23)C1 [Compound 293, 2-{[(3R,4S)-1-{4-[(8-{3-[(ethanesulfonyl)methyl]azetidin-1-yl}-5-(propan-2-yl)isoquinolin-3-yl)amino]pyrimidin-2-yl}-3-fluoropiperidin-4-yl]oxy}ethan-1-ol] | ≤ 10 | ≤ 15 | 
CO[C@@H]1CCN(c2nccc(Nc3cc4cccc(N5C[C@H](CS(C)(=O)=O)[C@H]5C)c4cn3)n2)C[C@@H]1F [Compound 5, N-{2-[(3S,4R)-3-fluoro-4-methoxypiperidin-1-yl]pyrimidin-4-yl}-8-[(2R,3S)-3-(methanesulfonylmethyl)-2-methylazetidin-1-yl]isoquinolin-3-amine] | 10.1 to 20 | ≤ 15 | 
[2H]C([2H])([2H])O[C@@H]1CCN(c2nccc(Nc3cc4c(C5CC5)ccc(N5C[C@H](CS(C)(=O)=O)[C@H]5C)c4cn3)n2)C[C@@H]1F [Compound 315, 5-cyclopropyl-N-(2-((3S,4R)-3-fluoro-4-(^2H3)piperidin-1-yl)pyrimidin-4-yl)-8-((2R,3S)-2-methyl-3-((methylsulfonyl)methyl)azetidin-1-yl)isoquinolin-3-amine] | ≤ 10 | ≤ 15 | 
CC1(C)CN(c2nccc(Nc3cc4ccnc(N5CC(CS(C)(=O)=O)C5)c4cn3)n2)C[C@@H](F)[C@H]1O (single isomer, unassigned) [Compound 6, (4S,5R)-5-fluoro-1-[4-({8-[3-(methanesulfonylmethyl)azetidin-1-yl]-2,7-naphthyridin-3-yl}amino)pyrimidin-2-yl]-3,3-dimethylpiperidin-4-ol or (4R,5S)-5-fluoro-1-[4-({8-[3-(methanesulfonylmethyl)azetidin-1-yl]-2,7-naphthyridin-3-yl}amino)pyrimidin-2-yl]-3,3-dimethylpiperidin-4-ol] | 20.1 to 30 | ≤ 15 | 
CO[C@@H]1CCN(c2nccc(Nc3cc4c(C(C)C)cnc(N5CC(CS(C)(=O)=O)C5)c4cn3)n2)C[C@]1(C)F (single isomer, unassigned) [Compound 143] | ≤ 10 | ≤ 15 | 
CC(C)c1ccc(N2CC(CS(C)(=O)=O)C2)c2cnc(Nc3ccnc(N4CCCC(O)CC4)n3)cc12 (racemic) [Compound 21, (rac)-1-[4-({8-[3-(methanesulfonylmethyl)azetidin-1-yl]-5-(propan-2-yl)isoquinolin-3-yl}amino)pyrimidin-2-yl]azepan-4-ol] | 30.1 to 50 | 20.1 to 30 | 
COC1(CN)CCN(c2nccc(Nc3cc4c(C(C)C)ccc(N5C[C@H](CS(C)(=O)=O)[C@H]5C)c4cn3)n2)CC1 [Compound 169, N-{2-[4-(aminomethyl)-4-methoxypiperidin-1-yl]pyrimidin-4-yl}-8-[(2R,3S)-3-(methanesulfonylmethyl)-2-methylazetidin-1-yl]-5-(propan-2-yl)isoquinolin-3-amine] | 30.1 to 50 | 15.1 to 20 | 
CO[C@H]1CCN(c2nccc(Nc3cc4c(C(C)C)ccc(N5C[C@H](CS(C)(=O)=O)[C@H]5C)c4cn3)n2)C[C@@H]1CO (single isomer, unassigned) [Compound 172, [(3R,4S)-1-[4-({8-[(2R,3S)-3-(methanesulfonylmethyl)-2-methylazetidin-1-yl]-5-(propan-2-yl)isoquinolin-3-yl}amino)pyrimidin-2-yl]-4-methoxypiperidin-3-yl]methanol or [(3S,4R)-1-[4-({8-[(2R,3S)-3-(methanesulfonylmethyl)-2-methylazetidin-1-yl]-5-(propan-2-yl)isoquinolin-3-yl}amino)pyrimidin-2-yl]-4-methoxypiperidin-3-yl]methanol] | 20.1 to 30 | ≤ 15 | 
CCS(=O)(=O)C[C@H]1CN(c2ccc(C(C)C)c3cc(Nc4ccnc(N5CC[C@H](OCCO)[C@H](F)C5)n4)ncc23)[C@@H]1C [Compound 243, 2-((3R,4S)-1-(4-(8-((2R,3S)-3-(ethylsulfonylmethyl)-2-methylazetidin-1-yl)-5-isopropylisoquinolin-3-ylamino)pyrimidin-2-yl)-3-fluoropiperidin-4-yloxy)ethanol] | ≤ 10 | ≤ 15 | 

More lines, now with the values ahead:

IC50 [1, 2] [nM] | IC50 (EGFR (L858R T790M C797S)) [nM] | IC50 ([1]; inhibition of phosphorylation of mutant EGFR in NCI-H1975 cells) [nM] | SMILES
≤ 10 | ≤ 15 |  | CC(C)c1cnc(N2C[C@H](CS(C)(=O)=O)[C@H]2C)c2cnc(Nc3ccnc(N4CC[C@@](C)(O)[C@@H](F)C4)n3)cc12 (single isomer, unassigned) [Compound 137]
≤ 10 | ≤ 15 |  | CO[C@@H]1CCN(c2nccc(Nc3cc4c(C(C)C)cnc(N5C[C@H](CS(C)(=O)=O)[C@H]5C)c4cn3)n2)C[C@@H]1O (single isomer, unassigned) [Compound 105, (3S,4R)-1-[4-({8-[(2R,3S)-3-(methanesulfonylmethyl)-2-methylazetidin-1-yl]-5-(propan-2-yl)-2,7-naphthyridin-3-yl}amino)pyrimidin-2-yl]-4-methoxypiperidin-3-ol or (3R,4S)-1-[4-({8-[(2R,3S)-3-(methanesulfonylmethyl)-2-methylazetidin-1-yl]-5-(propan-2-yl)-2,7-naphthyridin-3-yl}amino)pyrimidin-2-yl]-4-methoxypiperidin-3-ol]
≤ 10 | ≤ 15 |  | CO[C@H]1CCN(c2nccc(Nc3cc4c(C(C)C)ccc(N5C[C@H](CS(C)(=O)=O)[C@H]5C)c4cn3)n2)C[C@@H]1O (single isomer, unassigned) [Compound 92, (3S,4S)-1-(4-(5-isopropyl-8-(2R,3S)-2-methyl-3-(methylsulfonylmethyl)azetidin-1-yl)isoquinolin-3-ylamino)pyrimidin-2-yl)-4-methoxypiperidin-3-ol or (3R,4R)-1-(4-(5-isopropyl-8-((2R,3S)-2-methyl-3-(methylsulfonylmethyl)azetidin-1-yl)isoquinolin-3-ylamino)pyrimidin-2-yl)-4-methoxypiperidin-3-ol]
≤ 10 | ≤ 15 |  | CO[C@@H]1CCN(c2nccc(Nc3cc4c(F)ccc(N5C[C@H](CS(C)(=O)=O)[C@H]5C)c4cn3)n2)C[C@@H]1F [Compound 36, 5-fluoro-N-{2-[(3S,4R)-3-fluoro-4-methoxypiperidin-1-yl]pyrimidin-4-yl}-8-[(2R,3S)-3-(methanesulfonylmethyl)-2-methylazetidin-1-yl]isoquinolin-3-amine]
 | ≤ 15 | 10.1 to 20 | CO[C@H]1CCN(c2nccc(Nc3cc4c(C(C)C)cnc(N5CC(C[S@@](C)(=N)=O)[C@H]5C)c4cn3)n2)C[C@H]1F (single isomer, unassigned) [Compound 107, (1S)-(((2R)-1-(6-((2-((3R,4S)-3-fluoro-4-methoxypiperidin-1-yl)pyrimidin-4-yl)amino)-4-isopropyl-2,7-naphthyridin-1-yl)-2-methylazetidin-3-yl)methyl)(imino)(methyl)-λ^6-sulfanone or (1R)-(((2R)-1-(6-((2-((3R,4S)-3-fluoro-4-methoxypiperidin-1-yl)pyrimidin-4-yl)amino)-4-isopropyl-2,7-naphthyridin-1-yl)-2-methylazetidin-3-yl)methyl)(imino)(methyl)-λ^6-sulfanone]
≤ 10 | ≤ 15 |  | [2H]C([2H])([2H])O[C@H]1CCN(c2nccc(Nc3cc4c(C(C)C)cnc(N5C[C@H](CS(C)(=O)=O)[C@H]5C)c4cn3)n2)C[C@H]1F (single isomer, unassigned) [Compound 285]
10.1 to 20 | ≤ 15 |  | CCS(=O)(=O)C[C@H]1CN(c2nnc(C(C)C)c3cc(Nc4ccnc(N5CC[C@H](OC)[C@H](F)C5)n4)ncc23)[C@@H]1C [Compound 207, N-{4-[(2R,3S)-3-[(ethanesulfonyl)methyl]-2-methylazetidin-1-yl]-1-(propan-2-yl)pyrido[3,4-d]pyridazin-7-yl}-2-[(3R,4S)-3-fluoro-4-methoxypiperidin-1-yl]pyrimidin-4-amine]
10.1 to 20 | ≤ 15 |  | CO[C@H]1CCN(c2nccc(Nc3cc4c(F)ccc(N5C[C@H](CS(C)(=O)=O)[C@H]5C)c4cn3)n2)C[C@H]1F [Compound 37, 5-fluoro-N-{2-[(3R,4S)-3-fluoro-4-methoxypiperidin-1-yl]pyrimidin-4-yl}-8-[(2R,3S)-3-(methanesulfonylmethyl)-2-methylazetidin-1-yl]isoquinolin-3-amine]
